In patent US6638973B2, “Taxane formulations” (FSU Research Foundation, Inc., priority 2000, dated 2003):
pIC50: −log10 of the molar value. Like-named read-outs stand apart in the source and are kept apart here.

Tested on: HCT116 cells
Assay: In vitro cytotoxicity measured by the cell colony formation assay
Type: cell-based
Settings: colonies counted after 7 days, read-out: IN VITRO ID 50 (nm) HCT116
Summary of the method: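 Colony-forming survival was scored 7 days after a 72 h, 37 °C compound exposure followed by washout into fresh medium.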

[1] = HCT116 colony formation, 72 h drug incubation, Example 10, C-10 ester/C-7 hydroxy taxanes
[2] = HCT116 colony formation, 72 h drug incubation, Example 5, C-7 ester/C-10 hydroxy taxanes
[3] = HCT116 cells, 72 h incubation with drug, ID50 = drug concentration producing 50% inhibition of colony formation
[4] = HCT116 cells, colony formation, 72 h incubation with drug, ID50 = drug concentration producing 50% inhibition of colony formation

In the case of `CC(=O)O[C@@]12CO[C@@H]1C[C@H](O)[C@@]1(C)C(=O)[C@H](OC(=O)C3CC3)C3=C(C)[C@@H](OC(=O)[C@H](O)[C@@H](NC(=O)OC(C)(C)C)c4ccc([N+](=O)[O-])cc4)C[C@@](O)([C@@H](OC(=O)c4ccccc4)C12)C3(C)C` (stereo partly drawn) [Compound 0879], the pIC50 [1] was over 9.00.

`CC(=O)OC12COC1CC(O)C1(C)C(=O)C(OC(=O)c3cccs3)C3=C(C)C(OC(=O)C(O)C(NC(=O)OC(C)(C)C)c4ccc([N+](=O)[O-])cc4)CC(O)(C(OC(=O)c4ccccc4)C21)C3(C)C` (stereo not drawn) [Compound 1911] gave a pIC50 [1] of over 8.00.

Work on `CC(=O)O[C@@]12CO[C@@H]1C[C@H](OC(=O)NC1CCCCC1)[C@@]1(C)C(=O)[C@H](O)C3=C(C)[C@@H](OC(=O)[C@H](O)[C@@H](NC(=O)OC(C)(C)C)c4ccco4)C[C@@](O)([C@@H](OC(=O)c4ccccc4)C12)C3(C)C` (stereo partly drawn) [Compound 5373] yielded a pIC50 (HCT116 cells, 72 h drug incubation, ID50 = drug concentration producing 50% inhibition of colony formation) of over 8.00.

For `CCC(=O)O[C@H]1C[C@H]2OC[C@@]2(OC(C)=O)C2[C@H](OC(=O)c3ccccc3)[C@]3(O)C[C@H](OC(=O)[C@H](O)[C@@H](NC(=O)OC(C)(C)C)c4ccccn4)C(C)=C([C@@H](O)C(=O)[C@@]21C)C3(C)C` (stereo partly drawn) [Compound 1364], the pIC50 [2] was over 8.00.

Work on `CCOC(=O)O[C@H]1C(=O)[C@@]2(C)C([C@H](OC(=O)c3ccccc3)[C@]3(O)C[C@H](OC(=O)[C@H](O)[C@@H](NC(=O)c4ccccc4)c4cccs4)C(C)=C1C3(C)C)[C@]1(OC(C)=O)CO[C@@H]1C[C@@H]2O` (stereo partly drawn) [Compound 2972] yielded a pIC50 [3] of over 8.00.

`CC(=O)O[C@@]12CO[C@@H]1C[C@H](O)[C@@]1(C)C(=O)[C@H](OC(=O)C=C(C)C)C3=C(C)[C@@H](OC(=O)[C@H](O)[C@@H](NC(=O)OC(C)(C)C)c4ccccc4)C[C@@](O)([C@@H](OC(=O)c4ccccc4)C12)C3(C)C` (stereo partly drawn) [Compound 2520] gave a pIC50 [1] of over 8.00.

Work on `CCC(=O)O[C@H]1C(=O)[C@@]2(C)C([C@H](OC(=O)c3ccccc3)[C@]3(O)C[C@H](OC(=O)[C@H](O)[C@@H](NC(=O)OCC(C)C)c4ccsc4)C(C)=C1C3(C)C)[C@]1(OC(C)=O)CO[C@@H]1C[C@@H]2O` (stereo partly drawn) [Compound 4711] yielded a pIC50 [1] of over 8.00.

Work on `CCNC(=O)O[C@H]1C(=O)[C@@]2(C)C([C@H](OC(=O)c3ccccc3)[C@]3(O)C[C@H](OC(=O)[C@H](O)[C@@H](NC(=O)OC(C)(C)C)c4ccc([N+](=O)[O-])cc4)C(C)=C1C3(C)C)[C@]1(OC(C)=O)CO[C@@H]1C[C@@H]2O` (stereo partly drawn) [Compound 2743] yielded a pIC50 [4] of over 9.00.

Molecule `CCC(=O)O[C@H]1C(=O)[C@@]2(C)C([C@H](OC(=O)c3ccccc3)[C@]3(O)C[C@H](OC(=O)[C@H](O)[C@@H](NC(=O)c4ccccc4)c4ccccc4)C(C)=C1C3(C)C)[C@]1(OC(C)=O)CO[C@@H]1C[C@@H]2O` (stereo partly drawn) [Compound 0748] has a pIC50 [1] of over 8.00.

`CC(=O)O[C@@]12CO[C@@H]1C[C@H](O)[C@@]1(C)C(=O)[C@H](OC(=O)C(C)C)C3=C(C)[C@@H](OC(=O)[C@H](O)[C@@H](NC(=O)OC(C)(C)C)c4ccco4)C[C@@](O)([C@@H](OC(=O)c4ccccc4)C12)C3(C)C` (stereo partly drawn) [Compound 2269] showed a pIC50 [1] of over 9.00.

In the case of `CCOC(=O)O[C@H]1C(=O)[C@@]2(C)C([C@H](OC(=O)c3ccccc3)[C@]3(O)C[C@H](OC(=O)[C@H](O)[C@@H](NC(=O)C=C(C)C)c4cccs4)C(C)=C1C3(C)C)[C@]1(OC(C)=O)CO[C@@H]1C[C@@H]2O` (stereo partly drawn) [Compound 4374], the pIC50 [3] was over 9.00.

Work on `CCCC(=O)N[C@@H](c1cccs1)[C@@H](O)C(=O)O[C@H]1C[C@@]2(O)[C@@H](OC(=O)c3ccccc3)C3[C@](C)(C(=O)[C@H](OC(=O)C4CC4)C(=C1C)C2(C)C)[C@@H](O)C[C@H]1OC[C@@]31OC(C)=O` (stereo partly drawn) [Compound 3132] yielded a pIC50 [1] of over 9.00.

In the case of `CCCC(=O)N[C@@H](c1cccs1)[C@@H](O)C(=O)O[C@H]1C[C@@]2(O)[C@@H](OC(=O)c3ccccc3)C3[C@](C)(C(=O)[C@H](OC(=O)CCC)C(=C1C)C2(C)C)[C@@H](O)C[C@H]1OC[C@@]31OC(C)=O` (stereo partly drawn) [Compound 3148], the pIC50 [1] was over 9.00.

`CCOC(=O)O[C@H]1C[C@H]2OC[C@@]2(OC(C)=O)C2[C@H](OC(=O)c3ccccc3)[C@]3(O)C[C@H](OC(=O)[C@H](O)[C@@H](NC(=O)OCC(C)C)c4ccco4)C(C)=C([C@@H](O)C(=O)[C@@]21C)C3(C)C` (stereo partly drawn) [Compound 4696] showed a pIC50 [3] of over 9.00.

`COC(=O)O[C@H]1C(=O)[C@@]2(C)C([C@H](OC(=O)c3ccccc3)[C@]3(O)C[C@H](OC(=O)[C@H](O)[C@@H](NC(=O)OC(C)(C)C)c4cccnc4)C(C)=C1C3(C)C)[C@]1(OC(C)=O)CO[C@@H]1C[C@@H]2O` (stereo partly drawn) [Compound 2011] gave a pIC50 [3] of over 8.00.

`CCCC(=O)O[C@H]1C(=O)[C@@]2(C)C([C@H](OC(=O)c3ccccc3)[C@]3(O)C[C@H](OC(=O)[C@H](O)[C@@H](NC(=O)OCC(C)C)c4ccoc4)C(C)=C1C3(C)C)[C@]1(OC(C)=O)CO[C@@H]1C[C@@H]2O` (stereo partly drawn) [Compound 4704] gave a pIC50 [1] of over 8.00.

`CC(=O)O[C@@]12CO[C@@H]1C[C@H](O)[C@@]1(C)C(=O)[C@H](OC(=O)C3CC3)C3=C(C)[C@@H](OC(=O)[C@H](O)[C@@H](NC(=O)c4ccccc4)c4ccccn4)C[C@@](O)([C@@H](OC(=O)c4ccccc4)C12)C3(C)C` (stereo partly drawn) [Compound 2844] showed a pIC50 [1] of over 8.00.

In the case of `CCOC(=O)O[C@H]1C[C@H]2OC[C@@]2(OC(C)=O)C2[C@H](OC(=O)c3ccccc3)[C@]3(O)C[C@H](OC(=O)[C@H](O)[C@@H](NC(=O)OCC(C)C)c4ccsc4)C(C)=C([C@@H](O)C(=O)[C@@]21C)C3(C)C` (stereo partly drawn) [Compound 4979], the pIC50 [3] was over 8.00.

`CC(=O)O[C@@]12CO[C@@H]1C[C@H](O)[C@@]1(C)C(=O)[C@H](OC(=O)C=C(C)C)C3=C(C)[C@@H](OC(=O)[C@H](O)[C@@H](NC(=O)OC(C)(C)C)c4ccccn4)C[C@@](O)([C@@H](OC(=O)c4ccccc4)C12)C3(C)C` (stereo partly drawn) [Compound 2464] gave a pIC50 [1] of over 9.00.

Molecule `C/C=C/C(=O)N[C@@H](c1ccco1)[C@@H](O)C(=O)O[C@H]1C[C@@]2(O)[C@@H](OC(=O)c3ccccc3)C3[C@](C)(C(=O)[C@H](OC(=O)NCC)C(=C1C)C2(C)C)[C@@H](O)C[C@H]1OC[C@@]31OC(C)=O` (stereo partly drawn) [Compound 6072] has a pIC50 [4] of over 9.00.

`CC(=O)OC12COC1CC(O)C1(C)C(=O)C(OC(=O)c3ccco3)C3=C(C)C(OC(=O)C(O)C(NC(=O)OC(C)(C)C)c4cccs4)CC(O)(C(OC(=O)c4ccccc4)C21)C3(C)C` (stereo not drawn) [Compound 2164] was tested, and the pIC50 [1] was over 9.00.

With `CCC(=O)O[C@H]1C[C@H]2OC[C@@]2(OC(C)=O)C2[C@H](OC(=O)c3ccccc3)[C@]3(O)C[C@H](OC(=O)[C@H](O)[C@@H](NC(=O)OC(C)(C)C)c4ccoc4)C(C)=C([C@@H](O)C(=O)[C@@]21C)C3(C)C` (stereo partly drawn) [Compound 1401] the pIC50 [2] was over 9.00.

In the case of `CCC(=O)O[C@H]1C[C@H]2OC[C@@]2(OC(C)=O)C2[C@H](OC(=O)c3ccccc3)[C@]3(O)C[C@H](OC(=O)[C@H](O)[C@@H](NC(=O)OC(C)C)c4ccco4)C(C)=C([C@@H](O)C(=O)[C@@]21C)C3(C)C` (stereo partly drawn) [Compound 3444], the pIC50 [2] was over 9.00.

`CCOC(=O)O[C@H]1C[C@H]2OC[C@@]2(OC(C)=O)C2[C@H](OC(=O)c3ccccc3)[C@]3(O)C[C@H](OC(=O)[C@H](O)[C@@H](NC(=O)OCC(C)C)c4ccoc4)C(C)=C([C@@H](O)C(=O)[C@@]21C)C3(C)C` (stereo partly drawn) [Compound 4624] showed a pIC50 [3] of over 8.00.

`CC(=O)O[C@@]12CO[C@@H]1C[C@H](O)[C@@]1(C)C(=O)[C@H](OC(=O)C3CC3)C3=C(C)[C@@H](OC(=O)[C@H](O)[C@@H](NC(=O)OC(C)(C)C)c4ccco4)C[C@@](O)([C@@H](OC(=O)c4ccccc4)C12)C3(C)C` (stereo partly drawn) [Compound 0843] was tested, and the pIC50 [1] was over 9.00.

Work on `CC(=O)O[C@@]12CO[C@@H]1C[C@H](O)[C@@]1(C)C(=O)[C@H](OC(=O)C=C(C)C)C3=C(C)[C@@H](OC(=O)[C@H](O)[C@@H](NC(=O)OC(C)(C)C)c4ccncc4)C[C@@](O)([C@@H](OC(=O)c4ccccc4)C12)C3(C)C` (stereo partly drawn) [Compound 2472] yielded a pIC50 [1] of over 9.00.

In the case of `CCCCC(=O)O[C@H]1C[C@H]2OC[C@@]2(OC(C)=O)C2[C@H](OC(=O)c3ccccc3)[C@]3(O)C[C@H](OC(=O)[C@H](O)[C@@H](NC(=O)OC(C)(C)CC)c4ccco4)C(C)=C([C@@H](O)C(=O)[C@@]21C)C3(C)C` (stereo partly drawn) [Compound 6343], the pIC50 [2] was over 8.00.

In the case of `COC(=O)O[C@H]1C[C@H]2OC[C@@]2(OC(C)=O)C2[C@H](OC(=O)c3ccccc3)[C@]3(O)C[C@H](OC(=O)[C@H](O)[C@@H](NC(=O)OC(C)(C)C)c4ccsc4)C(C)=C([C@@H](O)C(=O)[C@@]21C)C3(C)C` (stereo partly drawn) [Compound 4474], the pIC50 [3] was over 9.00.

`CCOC(=O)N[C@@H](c1ccco1)[C@@H](O)C(=O)O[C@H]1C[C@@]2(O)[C@@H](OC(=O)c3ccccc3)C3[C@](C)(C(=O)[C@H](O)C(=C1C)C2(C)C)[C@@H](OC(=O)CC)C[C@H]1OC[C@@]31OC(C)=O` (stereo partly drawn) [Compound 3611] was tested, and the pIC50 [2] was over 9.00.

For `CC(=O)O[C@@]12CO[C@@H]1C[C@H](O)[C@@]1(C)C(=O)[C@H](OC(=O)C3CC3)C3=C(C)[C@@H](OC(=O)[C@H](O)[C@@H](NC(=O)c4cccs4)c4cccs4)C[C@@](O)([C@@H](OC(=O)c4ccccc4)C12)C3(C)C` (stereo partly drawn) [Compound 3453], the pIC50 [1] was over 9.00.

With `CC(=O)OC12COC1CC(O)C1(C)C(=O)C(OC(=O)c3cccs3)C3=C(C)C(OC(=O)C(O)C(C=C(C)C)NC(=O)OC(C)(C)C)CC(O)(C(OC(=O)c4ccccc4)C21)C3(C)C` (stereo not drawn) [Compound 1879] the pIC50 [1] was over 8.00.

For `CCC(=O)O[C@H]1C[C@H]2OC[C@@]2(OC(C)=O)C2[C@H](OC(=O)c3ccccc3)[C@]3(O)C[C@H](OC(=O)[C@H](O)[C@@H](NC(=O)OCC(C)C)c4ccsc4)C(C)=C([C@@H](O)C(=O)[C@@]21C)C3(C)C` (stereo partly drawn) [Compound 4544], the pIC50 [2] was over 8.00.

`CC(=O)O[C@@]12CO[C@@H]1C[C@H](O)[C@@]1(C)C(=O)[C@H](OC(=O)C3CC3)C3=C(C)[C@@H](OC(=O)[C@H](O)[C@H](C=C(C)C)NC(=O)OCC(C)C)C[C@@](O)([C@@H](OC(=O)c4ccccc4)C12)C3(C)C` (stereo partly drawn) [Compound 4720] showed a pIC50 [1] of over 8.00.
